Data taken from PMC8549013 (Neuropharmacology, 2021).

Assays:
wt hDAT = wt hDAT (Homo sapiens, UniProt Q01959); experiment: MAT-Ca2+ assay: inhibition of DA-induced Ca2+ signals; format: cell-based; details: DA 10 μM; for pIC50 ± SEM: ~35°C, Table 2
wt dDAT = wt dDAT (Drosophila melanogaster, UniProt Q7K4Y6); experiment: as above; format: cell-based; details: DA 10 μM; for pIC50 ± SEM: bottom of fit constrained to zero for MDPV
[1] = molecular target: A117S/D121G/P323V dDAT (triple dDAT mutant) (Drosophila melanogaster, UniProt Q7K4Y6, A117S/D121G/P323V); experiment: as above; format: cell-based
[2] = molecular target: A117S/D121G/P323V/F318C dDAT (quadruple dDAT mutant) (Drosophila melanogaster, UniProt Q7K4Y6, A117S/D121G/F318C/P323V); experiment: as above; format: cell-based
NET = details: rat brain synaptosomes; ref Gannon et al., 2018; cited from earlier work
hDAT = details: same technique, ref Steele and Eltit, 2019; cited from earlier work
P323V dDAT mutant = P323V dDAT mutant (Drosophila melanogaster, UniProt Q7K4Y6, P323V); experiment: MAT-Ca2+ assay: inhibition of DA-induced Ca2+ signals; format: cell-based
A117S dDAT mutant = A117S dDAT mutant (Drosophila melanogaster, UniProt Q7K4Y6, A117S); experiment: as above; format: cell-based
F318C dDAT mutant = F318C dDAT mutant (Drosophila melanogaster, UniProt Q7K4Y6, F318C); experiment: as above; format: cell-based
D121G dDAT mutant = D121G dDAT mutant (Drosophila melanogaster, UniProt Q7K4Y6, D121G); experiment: as above; format: cell-based
A117S/D121G dDAT mutant = A117S/D121G dDAT mutant (Drosophila melanogaster, UniProt Q7K4Y6, A117S/D121G); experiment: as above; format: cell-based
[3] = system: human dopamine transporter (hDAT); details: ref Baumann et al., 2013; Cameron et al., 2013b; Steele and Eltit, 2019; cited from earlier work
[4] = Table 2 dataset, with DA pre-pulse
[5] = Table 1 dataset, without DA pre-pulse

SMILES	IC50 (wt hDAT)	pIC50 ± SEM (wt hDAT)	IC50 (wt dDAT)	pIC50 ± SEM (wt dDAT)	IC50 [1, 4]	pIC50 ± SEM [1, 4]	IC50 [2, 4]	pIC50 ± SEM [2, 4]	weaker inhibiting uptake at NET than at DAT (NET)	IC50 ([1]; Table 2 dataset)	also measured
CC(C(=O)c1ccc2c(c1)OCO2)N1CCCC1 (stereo not drawn) [MDPPP, 3,4-methylenedioxy-α-pyrrolidinopropiophenone]	3.42 µM	5.47 ± 0.02 M	> 30 µM	Inactive	16 µM	4.80 ± 0.02 M	13 µM	4.89 ± 0.01 M	~ 5 fold	–	–
NCCc1ccc(O)c(O)c1 [DA, dopamine]	–	–	–	–	–	–	–	–	–	–	pEC50 of DA to produce Ca2+ signals (hDAT): 5.89 ± 0.04
CCCC(C(=O)c1ccccc1)N1CCCC1 (stereo not drawn) [α-PVP, α-pyrrolidinovalerophenone]	0.051 µM	7.29 ± 0.01 M	20.7 µM	4.68 ± 0.03 M	1.53 µM	5.82 ± 0.03 M	1.09 µM	5.96 ± 0.03 M	equipotent	1.53 µM	IC50 ([2]; Table 2 dataset): 1.09 µM
CCCC(C(=O)c1ccc2c(c1)OCO2)N1CCCC1 (stereo not drawn) [MDPV, 3,4-Methylenedioxypyrovalerone]	0.034 µM	7.47 ± 0.01 M	27.4 µM	4.56 ± 0.02 M	1.21 µM	5.92 ± 0.02 M	0.251 µM	6.60 ± 0.04 M	~ 4 fold	1.21 µM	IC50 (P323V dDAT mutant; P323V dDAT): 9.69 µM; pIC50 ± SEM (P323V dDAT mutant; P323V dDAT): 5.01 ± 0.03 M; improvement in potency vs wt dDAT (P323V dDAT mutant; P323V dDAT vs wt dDAT): ~ 3 fold; IC50 (A117S dDAT mutant; A117S dDAT): 8.39 µM; pIC50 ± SEM (A117S dDAT mutant; A117S dDAT): 5.08 ± 0.04 M; improvement in potency vs wt dDAT (A117S dDAT mutant; A117S dDAT vs wt dDAT): ~ 3 fold; IC50 (F318C dDAT mutant; F318C dDAT): 8.24 µM; pIC50 ± SEM (F318C dDAT mutant; F318C dDAT): 5.08 ± 0.02 M; improvement in potency vs wt dDAT (F318C dDAT mutant; F318C dDAT vs wt dDAT): ~ 3 fold; IC50 (D121G dDAT mutant): 4.65 µM; pIC50 ± SEM (D121G dDAT mutant): 5.33 ± 0.04 M; IC50 (A117S/D121G dDAT mutant): 2.21 µM; pIC50 ± SEM (A117S/D121G dDAT mutant): 5.66 ± 0.04 M; IC50 ([1]; Table 1 dataset): 1.18 µM; IC50 [1, 5]: 1.18 µM; pIC50 ± SEM [1, 5]: 5.93 ± 0.02 M; IC50 ([2]; Table 1 dataset): 0.25 µM; IC50 [2, 5]: 0.253 µM; pIC50 ± SEM [2, 5]: 6.60 ± 0.03 M; more potent than cocaine in blocking DA uptake through DAT [3]: ~ 50 fold
